Patent publication US20160250238A1, “Method for the Prophylaxis or Treatment of Systemic Lupus Erythematosus and/or Lupus Nephritis” (MILLENNIUM PHARMACEUTICALS, INC., priority 2013, published 2016)
Marks after values point to notes of the source that are not given here.

How the values were obtained:
anti-KLH IgG = test: ELISA for anti-KLH IgG titer in serum of KLH-immunized rats (rat KLH-TDAR model); type: in vivo, F344 rats; conditions: for Anti-KLH IgG titer: twice weekly for 4 weeks, serum, mean ± SE (n = 10)
Protocol: (§1) F344 rats (male, 7 weeks old) were immunized with KLH plus adjuvant twice at day 0 and day 14. From 8 days after last immunization, rats were administered with vehicle or compound (I) (0.3 mpk, i.v. or 1.5 mpk, p.o.) twice weekly for 4 weeks, then the rats were sacrificed and serum, spleen and bone marrow were collected. All study protocols were approved by TAKEDA Animal Care and Use Committee.
Serum was stored at −80° C. until use. Anti-KLH IgG titer in serum was measured by ELISA (KLH rat IgG ELISA kit, Shibayagi).
(§2) Data represent mean values+s.e.m. (n=10). Student t test was used for statistical analysis (*p<0.05, **p<0.01 vs. control).

[1] = tested on: anti-KLH antibody producing cells; test: ELISpot assay of anti-KLH IgG-secreting cells from spleen and bone marrow of KLH-immunized rats; type: in vivo, F344 rats; conditions: for The number of anti-KLH IgG-secreting cells, bone marrow / The number of anti-KLH IgG-secreting cells, Spleen: twice weekly for 4 weeks, mean ± SE (n = 10)
Protocol: as §1
Splenocytes and bone marrow cells were collected from spleen and bone marrow. The cells were cultured for 2 hours on 96 well plate pre-coated with KLH (Sigma, H7017-20 MG), then after washing with PBS, the plates were incubated with goat anti-rat IgG, HRP conjugate (Millipore, AP136P) for 1 hour. Anti-KLH antibody producing cells were visualized by adding TMB substrate and the number of anti-KLH antibody producing cells were counted by ELISpot reader system (AID).
as §2

Question: Which “Anti-KLH IgG titer” value (anti-KLH IgG; 0.3 mpk, iv) does the source give for `CC(C)C[C@H](NC(=O)CNC(=O)c1cc(Cl)ccc1Cl)B(O)O` [Compound (I), [(1R)-1-({[(2,5-dichlorobenzoyl)amino]acetyl}amino)-3-methylbutyl]boronic acid] here?
Answer: The value was 509.5 ± 54.4*.

Question: What about the “Anti-KLH IgG titer” value (anti-KLH IgG; 1.5 mpk, po) of the same compound?
Answer: Its value is 545.8 ± 67.0*.

Question: What about the “effect on anti-KLH IgG titer (in words)” value (anti-KLH IgG; four weeks treatment, 0.3 mpk, i.v. or 1.5 mpk, p.o.) of the same compound?
Answer: The value was “significantly suppressed the anti-KLH IgG titer”.

Question: What about the “The number of anti-KLH IgG-secreting cells, bone marrow” value ([1]; 0.3 mpk, iv) of the same compound?
Answer: Its value is 103.9 ± 16.9** /3 × 10^5cells.

Question: What about the “The number of anti-KLH IgG-secreting cells, Spleen” value ([1]; 0.3 mpk, iv) of the same compound?
Answer: The value was 37.0 ± 6.8** /1 × 10^6cells.

Question: And the “The number of anti-KLH IgG-secreting cells, bone marrow” value ([1]; 1.5 mpk, po)?
Answer: The value was 156.4 ± 32.0 /3 × 10^5cells.

Question: What about the “The number of anti-KLH IgG-secreting cells, Spleen” value ([1]; 1.5 mpk, po) of the same compound?
Answer: Its value is 50.1 ± 12.2* /1 × 10^6cells.

Question: What about the “effect on the number of anti-KLH IgG-producing cells in spleen and bone marrow (in words)” value ([1]; four weeks treatment, 0.3 mpk, i.v. or 1.5 mpk, p.o., ELISpot) of the same compound?
Answer: The value was “suppressed the number of anti-KLH IgG-producing cells in spleen and bone marrow”.
